Laboratory results taken from patent publication US20240208901A1, “Deuterated 3,3'-Diselenodipropionic Acid (DSePA) and Its Use as an Anticancer or Radioprotective Agent” (Secretary, Department of Atomic Energy, priority 2022, published 2024).

Key:
Type in all cases: cell-based, human
[1] = tested on: A549 cells; experiment: Clonogenic assay in A549 cells; conditions: Homo sapiens, 168 h, seven days treatment, read-out: IC50 to inhibit growth (survival fraction)
Procedure: (§1) Further, clonogenic assay is considered as the gold standard method for evaluating the anticancer activity of any compound and is also a good indicator of the in vivo efficacy of any anticancer compound. Therefore, the therapeutic index of DSePA and D-DSePA in A549/WI-38 cells was also validated by employing the clonogenic assay. For this, A549/WI-38 cells were treated with the varying concentrations (0.1-2 μM)/(1-500 μM) of DSePA/D-DSePA for seven days and the survival fraction was calculated by counting the number of surviving clones (FIG. 11A). The plot of survival fraction verses the concentration of DScPA/D-DSCPA was used to estimate the IC50 of above compounds to inhibit the growth of A549/WI-38 cells. […] This clearly confirmed that deuteration of DScPA reduced its toxicity in normal cells without compromising its efficacy in cancer cells. […]
(§2) Clonogenic assay—Clonogenic assay was performed according to the method reported previously. […] After 7 days, colonies were fixed with absolute methanol for 5 min, stained with 0.5% crystal violet for 5 min, washed with distilled water to remove excess stain and counted manually under a stereo microscope. […] The plating efficiency and the survival fraction under irradiated and drug treated conditions were calculated using following formulae: […]
(§3) The plating efficiency of A549 and WI38 cells was calculated by seeding ˜300 and ˜500 cells respectively. […]

[2] = tested on: WI-38 cells; experiment: Clonogenic assay in WI-38 cells; conditions: Homo sapiens, 168 h, seven days treatment, read-out: IC50 to inhibit growth (survival fraction)
Procedure: as §1, §2, §3

[3] = tested on: A549 cells; experiment: Clonogenic assay, combinatorial treatment with γ-irradiation in A549 cells
Procedure: Further, clonogenic assay is considered as the gold standard method for evaluating the anticancer activity of any compound and is also a good indicator of the in vivo efficacy of any anticancer compound. Therefore, the therapeutic index of DSePA and D-DSePA in A549/WI-38 cells was also validated by employing the clonogenic assay. For this, A549/WI-38 cells were treated with the varying concentrations (0.1-2 μM)/(1-500 μM) of DSePA/D-DSePA for seven days and the survival fraction was calculated by counting the number of surviving clones (FIG. 11A). The plot of survival fraction verses the concentration of DScPA/D-DSCPA was used to estimate the IC50 of above compounds to inhibit the growth of A549/WI-38 cells. […] This clearly confirmed that deuteration of DScPA reduced its toxicity in normal cells without compromising its efficacy in cancer cells. Since anticancer agents are intended to be used in combination with radiation, DSePA/D-DSePA at a treatment concentration of 0.5 μM (dose close to IC50 as determined by clonogenic assay) was combined with varying absorbed doses (2-8 Gy) of γ-irradiation and the effect of combinatorial treatment on the viability of A549 cells was determined by clonogenic assay (FIG. 12A & 12B). For this, A549 cells exposed to the varying absorbed doses (2-8 Gy) of γ-radiation were immediately treated with DScPA/D-DScPA and cultured for seven days prior to clonogenic assay. […] The D10 value of the combinatorial treatment involving DScPA estimated was 4.5 Gy (FIG. 12B). Similarly, D10 value of the combinatorial treatment involving D-DSePA estimated was 4 Gy. From these values, the dose modification factor (DMF or the ratio of the D10 of combinatorial treatment to that of D10 of radiation) of DScPA and D-DScPA estimated was 0.87±0.01 and 0.83±0.02 respectively. […] While the objective of radiotherapy is to achieve tumor control, it is also known to cause normal tissue toxicity. Previously, DSePA has been reported to protect normal cells from lethal effects of γ-radiation. Thus radio-protective activity of D-DSePA was compared with DScPA in terms of their abilities to protect non-cancerous lung fibroblast (WI-38) cells against γ-irradiation induced cell death. For this, WI-38 cells were pretreated with DSePA/D-DScPA for 24 h at an identical concentration of 0.5 μM (close to IC50 required to inhibit growth of A549 lung cancer cells by clonogenic assay) and then exposed to varying doses (2-12 Gy) of γ-irradiation. The survival of cells against radiation exposure was estimated by clonogenic assay and the dose response curve was prepared in the presence and absence of drug (DSePA/D-DScPA) (FIG. 12C & 12D). By using this dose response curve, the dose modification factor (DMF or the ratio of the D10 of radiation plus drug and D10 of radiation alone) of DSePA and D-DSePA estimated was 1.12±0.03 and 1.16±0.05 respectively.
as §2, §3

[4] = tested on: WI-38 cells; experiment: Clonogenic assay, radioprotection of WI-38 cells against γ-irradiation; conditions: WI-38 cells pretreated 24 h with 0.5 μM drug, γ-irradiation 2-12 Gy, clonogenic assay
Procedure: Further, clonogenic assay is considered as the gold standard method for evaluating the anticancer activity of any compound and is also a good indicator of the in vivo efficacy of any anticancer compound. Therefore, the therapeutic index of DSePA and D-DSePA in A549/WI-38 cells was also validated by employing the clonogenic assay. For this, A549/WI-38 cells were treated with the varying concentrations (0.1-2 μM)/(1-500 μM) of DSePA/D-DSePA for seven days and the survival fraction was calculated by counting the number of surviving clones (FIG. 11A). The plot of survival fraction verses the concentration of DScPA/D-DSCPA was used to estimate the IC50 of above compounds to inhibit the growth of A549/WI-38 cells. […] This clearly confirmed that deuteration of DScPA reduced its toxicity in normal cells without compromising its efficacy in cancer cells. Since anticancer agents are intended to be used in combination with radiation, DSePA/D-DSePA at a treatment concentration of 0.5 μM (dose close to IC50 as determined by clonogenic assay) was combined with varying absorbed doses (2-8 Gy) of γ-irradiation and the effect of combinatorial treatment on the viability of A549 cells was determined by clonogenic assay (FIG. 12A & 12B). For this, A549 cells exposed to the varying absorbed doses (2-8 Gy) of γ-radiation were immediately treated with DScPA/D-DScPA and cultured for seven days prior to clonogenic assay. […] The D10 value of the combinatorial treatment involving DScPA estimated was 4.5 Gy (FIG. 12B). […]
as §2, §3

O=C(O)CC[Se][Se]CCC(=O)O [DSePA, 3,3′-diselenodipropionic acid]
IC50 [1]: 1.2 ± 0.01 µM | IC50 [2]: 17.9 ± 0.01 µM | dose modification factor (DMF, D10 of combinatorial treatment / D10 of radiation) ([3]; 0.5 μM drug immediately after γ-radiation (2-8 Gy)): 0.87±0.01 | D10 value (decimal reduction dose) of the combinatorial treatment ([3]; γ-radiation 2-8 Gy then 0.5 μM drug immediately, seven days, radiation alone D10 5 Gy): 4.5 Gy | dose modification factor (DMF, D10 of radiation plus drug / D10 of radiation alone) [4]: 1.12±0.03
